In article PMC2710007, “Anchoring Secreted Proteins in Endoplasmic Reticulum by Plant Oleosin: The Example of Vitamin B12 Cellular Sequestration by Transcobalamin” (PLoS ONE, 2009):

Target: T1, transcobalamin-oleosin (TC-O) chimera (Homo sapiens, UniProt P20062)
T1 construct: gene TCN2; single fusion: human TC without N-terminal signal peptide and stop codon, at the N-terminal side of full-length peanut oleosin (ER anchor; printed oleosin primer encodes MATATDR...); pAcSG2 baculovirus, Sf9 cells; membrane fraction, not purified; with Oleosin (peanut, 17 kDa)
T1 sequence (P20062 19-427): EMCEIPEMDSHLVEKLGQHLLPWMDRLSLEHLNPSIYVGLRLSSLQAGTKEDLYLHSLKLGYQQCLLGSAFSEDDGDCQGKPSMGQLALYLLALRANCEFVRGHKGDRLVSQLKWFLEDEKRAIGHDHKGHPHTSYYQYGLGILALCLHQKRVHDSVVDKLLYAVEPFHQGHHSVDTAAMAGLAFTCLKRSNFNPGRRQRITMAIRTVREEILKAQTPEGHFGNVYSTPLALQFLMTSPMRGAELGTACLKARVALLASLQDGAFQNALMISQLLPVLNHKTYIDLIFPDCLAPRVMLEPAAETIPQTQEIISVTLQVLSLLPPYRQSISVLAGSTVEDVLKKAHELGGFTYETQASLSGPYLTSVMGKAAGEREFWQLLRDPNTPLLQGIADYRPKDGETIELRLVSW
Test: radioligand saturation binding, Scatchard plot
Type: biochemical
Details: membrane fraction of lysed Sf9 cells; 57Co labelled compound; TBS, 4 °C, 20 min; printed as Ka but in a concentration unit (that of a dissociation constant)

## [57Co]-labeled vitamin B12
  Ka: ~ 0.02 pmol/L
